Legend:
VirChR1 = target: T1, VirChR1 (marine metagenome, UniProt Z9TV22U1G0); experiment: UV-visible absorption of purified holoprotein; format: binding; conditions: covalent Schiff base (by homology); pH 7.5; all-trans-retinal added to E. coli culture
T1 sequence (Z9TV22U1G0 1-242): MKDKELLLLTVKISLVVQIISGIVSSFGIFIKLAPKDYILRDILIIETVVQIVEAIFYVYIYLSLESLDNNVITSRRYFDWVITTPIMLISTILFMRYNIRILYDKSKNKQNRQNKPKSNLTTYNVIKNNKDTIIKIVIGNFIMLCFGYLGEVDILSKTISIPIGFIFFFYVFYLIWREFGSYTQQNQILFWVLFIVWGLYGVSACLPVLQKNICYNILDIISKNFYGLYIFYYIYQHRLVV

OLPVR1 = target: T2, OLPVR1 (Organic Lake phycodnavirus 1, UniProt Z9N4O7KYY5); experiment: X-ray crystal structure, […] A (type A, P21212) and […] A (type B, P1); format: binding; conditions: covalent Schiff base to K204; all-trans 15-anti; crystals grown in meso with monopalmitolein, pH 8.0 (7AKY); also 7AKX (monoolein, pH 7.0)
T2 construct: residues 2-223 resolved; one (P21212) or two (P1) molecules per asymmetric unit
T2 sequence (Z9N4O7KYY5 1-223): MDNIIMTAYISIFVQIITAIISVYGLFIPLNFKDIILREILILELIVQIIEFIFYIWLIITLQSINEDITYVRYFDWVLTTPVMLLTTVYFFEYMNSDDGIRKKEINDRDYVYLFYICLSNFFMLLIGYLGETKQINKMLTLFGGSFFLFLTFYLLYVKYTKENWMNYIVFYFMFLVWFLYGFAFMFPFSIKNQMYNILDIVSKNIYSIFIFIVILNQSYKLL

CC1=C(/C=C/C(C)=C/C=C/C(C)=C/C=O)C(C)(C)CCC1 [all-trans retinal]
UV-visible absorption of purified holoprotein (VirChR1): Both OLPVR1 and VirChR1 show absorption spectra sensitive to blue light | X-ray crystal structure, 1.4 A (type A, P21212) and 1.6 A (type B, P1) (OLPVR1): all-trans retinal (ATR) covalently bound to K204 (K257 in CrChR2
